The IC50 is the concentration that inhibits the measured activity by half. What is called Km is the concentration of substrate that gives half-maximal velocity.

Residues, ends and D or L forms follow the SMILES beside them.

Type in all cases: functional, cell-based
In data set [1] the target is T1, Solute carrier family 15 member 2 (Rattus norvegicus) (UniProt Q63424).
T1 sequence (whole entry): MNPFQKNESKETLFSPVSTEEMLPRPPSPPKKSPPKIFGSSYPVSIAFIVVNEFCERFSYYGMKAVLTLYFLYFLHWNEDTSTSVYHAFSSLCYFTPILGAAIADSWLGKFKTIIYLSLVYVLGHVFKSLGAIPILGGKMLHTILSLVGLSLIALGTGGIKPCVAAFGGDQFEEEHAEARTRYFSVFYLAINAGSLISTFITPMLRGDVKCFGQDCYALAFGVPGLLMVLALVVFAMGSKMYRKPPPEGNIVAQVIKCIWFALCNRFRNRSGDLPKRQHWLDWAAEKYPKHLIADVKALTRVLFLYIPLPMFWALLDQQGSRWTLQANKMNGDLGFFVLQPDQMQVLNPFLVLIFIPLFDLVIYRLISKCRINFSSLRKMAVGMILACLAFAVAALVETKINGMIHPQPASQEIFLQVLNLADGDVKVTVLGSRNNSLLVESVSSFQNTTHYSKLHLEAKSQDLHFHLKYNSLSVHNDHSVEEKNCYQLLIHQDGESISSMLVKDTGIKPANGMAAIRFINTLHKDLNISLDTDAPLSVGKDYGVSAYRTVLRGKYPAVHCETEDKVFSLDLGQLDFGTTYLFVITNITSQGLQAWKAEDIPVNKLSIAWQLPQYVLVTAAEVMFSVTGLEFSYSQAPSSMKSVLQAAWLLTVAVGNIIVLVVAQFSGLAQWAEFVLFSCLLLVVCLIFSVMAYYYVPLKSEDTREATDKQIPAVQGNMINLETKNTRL
The experiment in a line: TP_TRANSPORTER: inhibition of Gly-Sar uptake (Gly-Sar: 30 uM, Ala-Lys: 500 uM) in PEPT2-expressing SK-N-SH cells.

The target in data set [2] is T1, Solute carrier family 15 member 2 (Rattus norvegicus). The experiment in a line: (§1) TP_TRANSPORTER: uptake in PEPT2-expressing HeLa cells.
The target is the same in data set [3]. Put plainly: TP_TRANSPORTER: inhibition of Gly-Sar uptake (Gly-Sar: 30 uM, Ala-Val: 500 uM) in PEPT2-expressing SK-N-SH cells.
For data set [4] the target is unchanged. The experiment in a line: TP_TRANSPORTER: inhibition of Gly-Sar uptake (Gly-Sar: 30 uM, Ala-Glu: 500 uM) in PEPT2-expressing SK-N-SH cells.
Data set [5] has as its target T2, Solute carrier family 15 member 2 (Rattus norvegicus, UniProt Q63424).
T2 sequence (Q63424 whole entry): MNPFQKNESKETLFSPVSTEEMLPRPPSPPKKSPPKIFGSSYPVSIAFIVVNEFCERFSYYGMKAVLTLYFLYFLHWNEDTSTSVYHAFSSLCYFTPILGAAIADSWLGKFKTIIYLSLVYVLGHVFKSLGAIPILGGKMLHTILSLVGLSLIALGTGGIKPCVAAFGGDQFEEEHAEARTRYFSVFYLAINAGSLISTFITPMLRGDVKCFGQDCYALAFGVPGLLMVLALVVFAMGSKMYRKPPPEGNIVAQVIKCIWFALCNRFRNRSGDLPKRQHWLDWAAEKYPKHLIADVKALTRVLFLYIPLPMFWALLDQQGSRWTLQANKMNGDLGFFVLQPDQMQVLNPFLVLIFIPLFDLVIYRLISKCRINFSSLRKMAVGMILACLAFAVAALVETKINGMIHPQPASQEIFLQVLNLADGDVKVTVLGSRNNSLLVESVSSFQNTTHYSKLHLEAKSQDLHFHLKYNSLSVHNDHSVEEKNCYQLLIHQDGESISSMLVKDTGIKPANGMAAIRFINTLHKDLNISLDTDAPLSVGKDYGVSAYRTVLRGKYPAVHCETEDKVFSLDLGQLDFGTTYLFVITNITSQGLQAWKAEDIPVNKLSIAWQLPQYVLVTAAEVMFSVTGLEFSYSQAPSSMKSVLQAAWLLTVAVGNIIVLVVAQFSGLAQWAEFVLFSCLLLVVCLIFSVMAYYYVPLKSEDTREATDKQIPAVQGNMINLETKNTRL
Put plainly: TP_TRANSPORTER: inhibition of Gly-Sar uptake (Gly-Sar: 10 uM) in PEPT2-expressing SK-N-SH cells.

Substrate in data set [6]: CN(CC(=O)O)C(=O)CN
Described as §1.

`C[C@H](N)C(=O)N[C@@H](CCCCN)C(=O)O` (H-Ala-Lys-OH): the Activity result in data set [1] is “inhibitor [+]”.

In the case of `NCC(=O)N1CCC[C@H]1C(=O)O` (H-Gly-Pro-OH), in data set [2], the Activity result was “substrate [+]”.

Take `NCC(=O)N[C@@H](Cc1ccccc1)C(=O)O` (H-Gly-Phe-OH): the Activity result in data set [2] was “substrate [+]”. Consider `NCC(=O)NCC(=O)O` (H-Gly-Gly-OH), for which the Activity result in data set [2] is “substrate [+]”. With `CC(C)[C@H](NC(=O)[C@H](C)N)C(=O)O` (H-Ala-Val-OH), in data set [3], the Activity entry is “inhibitor [+]”. Take `C[C@H](N)C(=O)N[C@@H](CCC(=O)O)C(=O)O` (H-Ala-Glu-OH): the Activity entry in data set [4] was “inhibitor [+]”. In data set [5], `CC(=O)N[C@@H](CC(=O)O)C(=O)N[C@@H](CCC(=O)O)C(=O)O` [ISOSPAGLUMIC ACID] (Ac-Asp-Glu-OH) registered an IC50 of 3 mM.

B1: Solute carrier family 15 member 2 (Rattus norvegicus), Q63424 (protein)
chain: MNPFQKNESKETLFSPVSTEEMLPRPPSPPKKSPPKIFGSSYPVSIAFIVVNEFCERFSYYGMKAVLTLYFLYFLHWNEDTSTSVYHAFSSLCYFTPILGAAIADSWLGKFKTIIYLSLVYVLGHVFKSLGAIPILGGKMLHTILSLVGLSLIALGTGGIKPCVAAFGGDQFEEEHAEARTRYFSVFYLAINAGSLISTFITPMLRGDVKCFGQDCYALAFGVPGLLMVLALVVFAMGSKMYRKPPPEGNIVAQVIKCIWFALCNRFRNRSGDLPKRQHWLDWAAEKYPKHLIADVKALTRVLFLYIPLPMFWALLDQQGSRWTLQANKMNGDLGFFVLQPDQMQVLNPFLVLIFIPLFDLVIYRLISKCRINFSSLRKMAVGMILACLAFAVAALVETKINGMIHPQPASQEIFLQVLNLADGDVKVTVLGSRNNSLLVESVSSFQNTTHYSKLHLEAKSQDLHFHLKYNSLSVHNDHSVEEKNCYQLLIHQDGESISSMLVKDTGIKPANGMAAIRFINTLHKDLNISLDTDAPLSVGKDYGVSAYRTVLRGKYPAVHCETEDKVFSLDLGQLDFGTTYLFVITNITSQGLQAWKAEDIPVNKLSIAWQLPQYVLVTAAEVMFSVTGLEFSYSQAPSSMKSVLQAAWLLTVAVGNIIVLVVAQFSGLAQWAEFVLFSCLLLVVCLIFSVMAYYYVPLKSEDTREATDKQIPAVQGNMINLETKNTRL
Regarding B1, the Km in data set [6] came out at 35 µM.
